Like-named read-outs stand apart in the source and are kept apart here. A value given as a limit tells only on which side of the number the result lay.

The target in the test is T1, VAV1 (Homo sapiens, UniProt P15498+Q96SW2).
T1 construct: A heterozygous VAV1 C-terminal HiBiT knock-in pool was generated at Monte Rosa Therapeutics from a clonal Jurkat cell; endogenous in cells; host or cells: Jurkat clone stably expressing LgBiT, homozygous GSPT1-G575N; heterozygous VAV1-HiBiT knock-in pool
Briefly: VAV1 degradation activity, VAV1-HiBiT knock-in Jurkat luminescence assay (Example A, Table 1). It counts as cell-based. As to conditions: VAV1-HiBiT knock-in Jurkat cells, luminescence read at 6 and 24 hours; for Dmax: Jurkat. A digest of the protocol:
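Jurkat cells carrying VAV1-HiBiT knock-in, plated in RPMI/10% FBS with Endurazine live-cell substrate and pre-incubated ~16 h at 37° C. Compound dosed from 10 μM stock; luminescence read 6 and 24 h later. Response normalised to plate negative/positive controls, EC50 from 3-parameter logistic fit (hillslope 1).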

[1] abbreviates: read-out: VAV1 DC50 (nM), class.

Take `O=C1CCC(c2cccc(-c3ccc(Cc4cccnc4)cc3)c2Cl)C(=O)N1` (stereo not drawn) [Compound 374, 3-(2-chloro-4′-(pyridin-3-ylmethyl)-[1,1′-biphenyl]-3-yl)piperidine-2,6-dione]: the Dmax (as a rule, the largest share of the target that was removed) reads like this: (read-out: VAV1 Dmax %) 97.4%; (read-out: VAV1 Dmax %, class) above 90%. Also, the DC50 (as a rule, the concentration at which degradation of the target reaches its halfway point) by setting is: (read-out: VAV1 DC50) 10.2 nM; under setting [1], at most 100 nM.

Turning to `COC(=O)c1ccc(Cc2ccc(-c3cccc(C4CCC(=O)NC4=O)c3Cl)cc2)n1C` (stereo not drawn) [Compound 375, methyl 5-((2′-chloro-3′-(2,6-dioxopiperidin-3-yl)-[1,1′-biphenyl]-4-yl)methyl)-1-methyl-1H-pyrrole-2-carboxylate], the maximal degradation (Dmax) runs as follows: (read-out: VAV1 Dmax %) 98%; (read-out: VAV1 Dmax %, class) above 90%. The half-maximal degradation concentration (DC50) runs as follows: (read-out: VAV1 DC50) 14.2 nM; under setting [1], at most 100 nM.

For `O=C1CCC(c2cccc(-c3ccc(Cc4cncnc4)cc3)c2Cl)C(=O)N1` (stereo not drawn) [Compound 376, 3-(2-chloro-4′-(pyrimidin-5-ylmethyl)-[1,1′-biphenyl]-3-yl)piperidine-2,6-dione], the greatest degradation seen (Dmax) was 95.8% (read-out: VAV1 Dmax %) and above 90% (read-out: VAV1 Dmax %, class). Also, the DC50 runs as follows: (read-out: VAV1 DC50) 15.2 nM; under setting [1], at most 100 nM.

For `O=C1CCC(c2cccc(-c3ccc(Cc4cccs4)cc3)c2Cl)C(=O)N1` (stereo not drawn) [Compound 377, 3-(2-chloro-4′-(thiophen-2-ylmethyl)-[1,1′-biphenyl]-3-yl)piperidine-2,6-dione], the maximal degradation (Dmax) runs as follows: (read-out: VAV1 Dmax %) 98.8%; (read-out: VAV1 Dmax %, class) above 90%. In addition, the DC50 (read-out: VAV1 DC50) was 17.2 nM and the 50% degradation concentration (DC50) under setting [1] was at most 100 nM.

For `CN1CCC(C)(C)N(c2ccc(-c3cccc(C4CCC(=O)NC4=O)c3Cl)cc2)C1=O` (stereo not drawn) [Compound 378, 3-(2-chloro-4′-(3,6,6-trimethyl-2-oxotetrahydropyrimidin-1(2H)-yl)-[1,1′-biphenyl]-3-yl)piperidine-2,6-dione], the Dmax was 98.3% (read-out: VAV1 Dmax %) and above 90% (read-out: VAV1 Dmax %, class). Besides, the DC50 is, setting by setting: (read-out: VAV1 DC50) 1.56 nM; under setting [1], at most 100 nM.

As for `O=C1CCC(c2cccc(-c3ccc4c(c3)CCCO4)c2Cl)C(=O)N1` (stereo not drawn) [Compound 381, 3-[2-chloro-3-(3,4-dihydro-2H-1-benzopyran-6-yl)phenyl]piperidine-2,6-dione], the maximal degradation (Dmax) (read-out: VAV1 Dmax %) was 96.5% and the greatest degradation seen (Dmax) (read-out: VAV1 Dmax %, class) was above 90%. For the same compound, the half-maximal degradation concentration (DC50) is, setting by setting: (read-out: VAV1 DC50) 35.9 nM; under setting [1], at most 100 nM.

`CN1CCCN(c2ncc(-c3cccc(C4CCC(=O)NC4=O)c3Cl)cc2F)C1=O` (stereo not drawn) [Compound 382, 3-(2-chloro-3-(5-fluoro-6-(3-methyl-2-oxotetrahydropyrimidin-1(2H)-yl)pyridin-3-yl)phenyl)piperidine-2,6-dione]: the Dmax was 76% (read-out: VAV1 Dmax %) and 60 to 90% (read-out: VAV1 Dmax %, class). Further, the DC50 (read-out: VAV1 DC50) was found to be 167 nM and the DC50 under setting [1] lay in the range of 100 to 1000 nM.

As to `CN1CCCN(Cc2ncc(-c3cccc(C4CCC(=O)NC4=O)c3Cl)cc2F)C1=O` (stereo not drawn) [Compound 383, 3-(2-chloro-3-(5-fluoro-6-((3-methyl-2-oxotetrahydropyrimidin-1(2H)-yl)methyl)pyridin-3-yl)phenyl)piperidine-2,6-dione], the Dmax is, setting by setting: (read-out: VAV1 Dmax %) 80.2%; (read-out: VAV1 Dmax %, class) 60 to 90%. The 50% degradation concentration (DC50) was 113 nM (read-out: VAV1 DC50) and 100 to 1000 nM under setting [1].

Consider `O=C1CCC(c2cccc(-c3ccc(N4C(=O)CCC45CC5)nc3)c2Cl)C(=O)N1` (stereo not drawn) [Compound 384, 3-(2-chloro-3-(6-(5-oxo-4-azaspiro[2.4]heptan-4-yl)pyridin-3-yl)phenyl)piperidine-2,6-dione], for which the greatest degradation seen (Dmax) (read-out: VAV1 Dmax %) is 75.5% and the Dmax (read-out: VAV1 Dmax %, class) lay within 60 to 90%. For the same compound, the half-maximal degradation concentration (DC50) reads like this: (read-out: VAV1 DC50) 122 nM; under setting [1], 100 to 1000 nM.

`O=C1CCC(c2cccc(-c3ccc(Cc4ncco4)c(F)c3)c2Cl)C(=O)N1` (stereo not drawn) [Compound 385, 3-(2-chloro-3′-fluoro-4′-(oxazol-2-ylmethyl)-[1,1′-biphenyl]-3-yl)piperidine-2,6-dione]: the maximal degradation (Dmax) reads like this: (read-out: VAV1 Dmax %) 97.8%; (read-out: VAV1 Dmax %, class) above 90%. Besides, the DC50 by setting is: (read-out: VAV1 DC50) 7 nM; under setting [1], at most 100 nM.

With `O=C1CCC(c2cccc(-c3ccc(N4CC5(COC5)CC4=O)cc3)c2Cl)C(=O)N1` (stereo not drawn) [Compound 386, 3-(2-chloro-4′-(7-oxo-2-oxa-6-azaspiro[3.4]octan-6-yl)-[1,1′-biphenyl]-3-yl)piperidine-2,6-dione], the Dmax (read-out: VAV1 Dmax %) came to 29.2% and the maximal degradation (Dmax) (read-out: VAV1 Dmax %, class) was below 60%. For the same compound, the DC50 was at least 10000 nM (read-out: VAV1 DC50) and above 1000 nM under setting [1].

Regarding `CN1CCN(c2ccc(-c3cccc(C4CCC(=O)NC4=O)c3Cl)cc2)C1=O` (stereo not drawn) [Compound 387, 3-(2-chloro-4′-(3-methyl-2-oxoimidazolidin-1-yl)-[1,1′-biphenyl]-3-yl)piperidine-2,6-dione], the maximal degradation (Dmax) is, setting by setting: (read-out: VAV1 Dmax %) 58.4%; (read-out: VAV1 Dmax %, class) below 60%. The DC50 reads like this: (read-out: VAV1 DC50) 865 nM; under setting [1], 100 to 1000 nM.

As to `CN1CCN(Cc2ccc(-c3cccc(C4CCC(=O)NC4=O)c3Cl)cc2)C1=O` (stereo not drawn) [Compound 388, 3-(2-chloro-4′-((3-methyl-2-oxoimidazolidin-1-yl)methyl)-[1,1′-biphenyl]-3-yl)piperidine-2,6-dione], the greatest degradation seen (Dmax) is 91% (read-out: VAV1 Dmax %) and above 90% (read-out: VAV1 Dmax %, class). The DC50 (read-out: VAV1 DC50) turned out to be 16.2 nM and the 50% degradation concentration (DC50) under setting [1] was at most 100 nM.

In the case of `O=C1CCC(c2cccc(-c3ccc(N4C(=O)CCCC45CC5)nc3)c2Cl)C(=O)N1` (stereo not drawn) [Compound 389, 3-(2-chloro-3-(6-(5-oxo-4-azaspiro[2.5]octan-4-yl)pyridin-3-yl)phenyl)piperidine-2,6-dione], the Dmax by setting is: (read-out: VAV1 Dmax %) 88.5%; (read-out: VAV1 Dmax %, class) 60 to 90%. Besides, the DC50 (read-out: VAV1 DC50) came out at 41.4 nM and the DC50 under setting [1] was at most 100 nM.

Turning to `N#CC1(CN2C(=O)Cc3cc(-c4cccc(C5CCC(=O)NC5=O)c4Cl)ccc32)CC1` (stereo not drawn) [Compound 390, 1-((5-(2-chloro-3-(2,6-dioxopiperidin-3-yl)phenyl)-2-oxoindolin-1-yl)methyl)cyclopropane-1-carbonitrile], the Dmax by setting is: (read-out: VAV1 Dmax %) 71.2%; (read-out: VAV1 Dmax %, class) 60 to 90%. Besides, the DC50 by setting is: (read-out: VAV1 DC50) 615 nM; under setting [1], 100 to 1000 nM.

Turning to `COC1(CN2C(=O)Cc3cc(-c4cccc(C5CCC(=O)NC5=O)c4Cl)ccc32)CC1` (stereo not drawn) [Compound 391, 3-(2-chloro-3-(1-((1-methoxycyclopropyl)methyl)-2-oxoindolin-5-yl)phenyl)piperidine-2,6-dione], the greatest degradation seen (Dmax) by setting is: (read-out: VAV1 Dmax %) 54%; (read-out: VAV1 Dmax %, class) below 60%. Besides, the 50% degradation concentration (DC50) by setting is: (read-out: VAV1 DC50) 5110 nM; under setting [1], above 1000 nM.

Turning to `Cn1cnc(Cn2c(=O)oc3cc(-c4cccc(C5CCC(=O)NC5=O)c4Cl)ccc32)c1` (stereo not drawn) [Compound 392, 3-(2-chloro-3-(3-((1-methyl-1H-imidazol-4-yl)methyl)-2-oxo-2,3-dihydrobenzo[d]oxazol-6-yl)phenyl)piperidine-2,6-dione], the Dmax (read-out: VAV1 Dmax %) was 94.8% and the Dmax (read-out: VAV1 Dmax %, class) was above 90%. Besides, the half-maximal degradation concentration (DC50) by setting is: (read-out: VAV1 DC50) 12.8 nM; under setting [1], at most 100 nM.

As to `O=C1CCC(c2cccc(-c3ccc4c(c3)CC(=O)N4Cc3ncccn3)c2Cl)C(=O)N1` (stereo not drawn) [Compound 393, 3-(2-chloro-3-(2-oxo-1-(pyrimidin-2-ylmethyl)indolin-5-yl)phenyl)piperidine-2,6-dione], the Dmax by setting is: (read-out: VAV1 Dmax %) 86.7%; (read-out: VAV1 Dmax %, class) 60 to 90%. Also, the DC50 is 29.3 nM (read-out: VAV1 DC50) and at most 100 nM under setting [1].

In the case of `O=C1CCC(c2cccc(-c3ccc(N4C(=O)CCC45CCC5)nc3)c2Cl)C(=O)N1` (stereo not drawn) [Compound 394, 3-(2-chloro-3-(6-(6-oxo-5-azaspiro[3.4]octan-5-yl)pyridin-3-yl)phenyl)piperidine-2,6-dione], the Dmax was 88.7% (read-out: VAV1 Dmax %) and 60 to 90% (read-out: VAV1 Dmax %, class). The DC50 (read-out: VAV1 DC50) is 36.2 nM and the DC50 under setting [1] is at most 100 nM.

Take `O=C1CCC(c2cccc(-c3ccc4c(c3)CC(=O)N4Cc3cccnn3)c2Cl)C(=O)N1` (stereo not drawn) [Compound 395, 3-(2-chloro-3-(2-oxo-1-(pyridazin-3-ylmethyl)indolin-5-yl)phenyl)piperidine-2,6-dione]: the Dmax is 83.9% (read-out: VAV1 Dmax %) and 60 to 90% (read-out: VAV1 Dmax %, class). In addition, the DC50 (read-out: VAV1 DC50) was found to be 55.7 nM and the DC50 under setting [1] is at most 100 nM.

On to `O=C1CCC(c2cccc(-c3ccc4c(cnn4Cc4ncccn4)c3)c2Cl)C(=O)N1` (stereo not drawn) [Compound 396, 3-(2-chloro-3-(1-(pyrimidin-2-ylmethyl)-1H-indazol-5-yl)phenyl)piperidine-2,6-dione], for which the greatest degradation seen (Dmax) runs as follows: (read-out: VAV1 Dmax %) 96.9%; (read-out: VAV1 Dmax %, class) above 90%. The half-maximal degradation concentration (DC50) runs as follows: (read-out: VAV1 DC50) 4.98 nM; under setting [1], at most 100 nM.

For `Cn1cnc(Cn2ncc3cc(-c4cccc(C5CCC(=O)NC5=O)c4Cl)ccc32)c1` (stereo not drawn) [Compound 397, 3-(2-chloro-3-(1-((1-methyl-1H-imidazol-4-yl)methyl)-1H-indazol-5-yl)phenyl)piperidine-2,6-dione], the Dmax by setting is: (read-out: VAV1 Dmax %) 99.1%; (read-out: VAV1 Dmax %, class) above 90%. Moreover, the half-maximal degradation concentration (DC50) is, setting by setting: (read-out: VAV1 DC50) 3.01 nM; under setting [1], at most 100 nM.

As for `O=C1CCC(c2cccc(-c3ccc(Cc4ncccn4)nc3)c2Cl)C(=O)N1` (stereo not drawn) [Compound 400, 3-(2-chloro-3-(6-(pyrimidin-2-ylmethyl)pyridin-3-yl)phenyl)piperidine-2,6-dione], the greatest degradation seen (Dmax) reads like this: (read-out: VAV1 Dmax %) 81.5%; (read-out: VAV1 Dmax %, class) 60 to 90%. The 50% degradation concentration (DC50) is 77 nM (read-out: VAV1 DC50) and at most 100 nM under setting [1].

`O=C1CCC(c2cccc(-c3ccc(Cc4ccncn4)cc3)c2Cl)C(=O)N1` (stereo not drawn) [Compound 401, 3-(2-chloro-4′-(pyrimidin-4-ylmethyl)-[1,1′-biphenyl]-3-yl)piperidine-2,6-dione]: the Dmax runs as follows: (read-out: VAV1 Dmax %) 94.4%; (read-out: VAV1 Dmax %, class) above 90%. The DC50 is 15 nM (read-out: VAV1 DC50) and at most 100 nM under setting [1].

(Values after patent US12257247B2 (Monte Rosa Therapeutics AG, priority 2023, dated 2025).)
